Results from US20130324522A1, “INSECT ODORANT RECEPTOR ANTAGONISTS” (THE ROCKEFELLER UNIVERSITY, priority 2010, published 2013).

Columns and labels:
Format in all cases: cell-based
[1] = target: T1, serotonin receptor (5HT3) (Mus musculus, UniProt P23979); experiment: Ca2+-imaging of stable Flip-In T-Rex cell line 5HT3; settings: for inhibition at 4 µM: compound applied at 4 μM, read-out: Percent Inhibition 5HT3; for IC50: Table B, read-out: IC50 5HT3
T1 construct: Full-length cDNAs for mosquito (Anopheles gambiae) odorant receptor; expressed in transfected cells
T1 sequence (P23979 24-489): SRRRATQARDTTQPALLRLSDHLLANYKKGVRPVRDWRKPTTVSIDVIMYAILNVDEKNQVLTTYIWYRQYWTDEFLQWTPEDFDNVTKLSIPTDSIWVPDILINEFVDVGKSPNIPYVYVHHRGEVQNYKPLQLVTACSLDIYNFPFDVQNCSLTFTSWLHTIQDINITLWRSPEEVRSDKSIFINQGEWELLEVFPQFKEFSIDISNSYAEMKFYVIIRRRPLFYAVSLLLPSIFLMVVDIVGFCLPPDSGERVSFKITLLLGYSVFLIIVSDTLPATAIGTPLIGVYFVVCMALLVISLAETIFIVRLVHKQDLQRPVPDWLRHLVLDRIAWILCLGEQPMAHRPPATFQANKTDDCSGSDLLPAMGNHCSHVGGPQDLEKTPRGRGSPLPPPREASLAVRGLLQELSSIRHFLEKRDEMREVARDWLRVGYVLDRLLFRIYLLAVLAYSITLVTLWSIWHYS
Procedure, shortened: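 Flp-In T-REx stable lines (Drosophila Or47a/Or83b or mouse 5HT3), 10,000 cells/well cultured 2 days, induced with tetracycline 1 day before assay.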

mOREG = target: T2, mOREG (Mus musculus, UniProt Q920P2); experiment: Ca2+-imaging, control receptor mOREG; settings: for inhibition at 4 µM: compound applied at 4 μM, read-out: Percent Inhibition mOREG; for IC50: Table B
T2 sequence (Q920P2 1-313): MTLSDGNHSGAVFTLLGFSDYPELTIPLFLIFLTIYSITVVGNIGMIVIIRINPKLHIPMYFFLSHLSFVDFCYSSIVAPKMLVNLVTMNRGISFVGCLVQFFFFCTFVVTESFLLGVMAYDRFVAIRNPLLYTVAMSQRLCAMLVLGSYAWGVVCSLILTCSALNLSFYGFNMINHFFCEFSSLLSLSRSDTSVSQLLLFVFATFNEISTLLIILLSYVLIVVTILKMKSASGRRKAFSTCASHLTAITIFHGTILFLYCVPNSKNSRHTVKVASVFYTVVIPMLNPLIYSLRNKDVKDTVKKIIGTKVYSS
Procedure, shortened: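 Stable cell lines plated 2 days on poly-D-lysine, loaded with Ca-4 dye 1.5 hr at room temperature, then challenged with odorant in HBSS containing pre-added compounds. Intracellular Ca2+ rise followed by real-time fluorescence, 485 nm excitation/525 nm emission; HBSS and ligand wells serve as negative and positive controls.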

OR8/OR7 = OR8/OR7 (Anopheles gambiae, UniProt Q7PUT5+Q7QCC7); experiment: Ca2+-imaging of stable HEK293T cell line OR8/OR7; settings: for inhibition at 4 µM: HEK-293T, compound applied at 4 μM, read-out: Percent Inhibition OR8 OR7; for IC50: Table B, read-out: IC50 OR8
Procedure, shortened: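 HEK293T stable lines (OR+OR7 co-receptor; TRPM8 single). Ca-4 dye 1.5 hr RT, dark. Compounds ([…] DMSO stock) spiked into odorant plates in HBSS; last two columns DMSO only.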

Sequence of OR8/OR7 (Q7QCC7 whole entry): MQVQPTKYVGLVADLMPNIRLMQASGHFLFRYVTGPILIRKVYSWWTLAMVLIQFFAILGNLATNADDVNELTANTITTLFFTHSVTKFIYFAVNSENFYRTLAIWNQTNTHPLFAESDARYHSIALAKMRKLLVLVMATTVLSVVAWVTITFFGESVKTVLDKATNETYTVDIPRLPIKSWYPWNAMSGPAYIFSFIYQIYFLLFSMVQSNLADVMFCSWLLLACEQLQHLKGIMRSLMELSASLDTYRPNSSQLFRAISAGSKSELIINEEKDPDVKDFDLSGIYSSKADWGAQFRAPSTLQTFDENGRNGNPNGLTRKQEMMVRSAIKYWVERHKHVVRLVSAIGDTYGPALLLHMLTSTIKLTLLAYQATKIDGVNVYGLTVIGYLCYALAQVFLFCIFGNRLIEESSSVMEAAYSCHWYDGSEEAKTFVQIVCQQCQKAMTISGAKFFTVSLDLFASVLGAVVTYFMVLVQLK
Sequence of OR8/OR7 (Q7PUT5 entry or part of it): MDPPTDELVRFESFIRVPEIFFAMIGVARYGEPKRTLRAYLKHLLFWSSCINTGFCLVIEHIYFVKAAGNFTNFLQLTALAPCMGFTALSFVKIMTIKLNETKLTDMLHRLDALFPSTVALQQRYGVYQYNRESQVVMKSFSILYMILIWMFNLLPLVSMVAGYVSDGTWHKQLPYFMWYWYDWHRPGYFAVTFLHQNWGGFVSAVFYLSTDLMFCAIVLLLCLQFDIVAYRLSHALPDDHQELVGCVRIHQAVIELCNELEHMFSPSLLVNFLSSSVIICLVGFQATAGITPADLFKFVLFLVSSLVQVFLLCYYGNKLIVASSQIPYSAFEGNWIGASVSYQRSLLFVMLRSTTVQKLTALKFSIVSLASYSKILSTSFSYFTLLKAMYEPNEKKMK

Structure (SMILES) | inhibition at 4 µM [1] | inhibition at 4 µM (mOREG) | inhibition at 4 µM (OR8/OR7) | IC50 (OR8/OR7) | IC50 [1] | IC50 (mOREG)
Cc1ccc(-n2nc(C)c(CCC(=O)N3CCc4ccccc4C3)c2C)cc1Cl [RU-0026074] | < 25% | < 25% |  |  |  | 
COc1ccc(C(=O)c2ccccc2)c(O)c1O [RU-0001617] | 26 to 50% | < 25% | < 25% |  |  | 
CC(NC(=O)c1cc2n(n1)CCN(Cc1c(Cl)cccc1Cl)C2=O)c1ccccc1 (stereo not drawn) [RU-0045115] | < 25% | 26 to 50% | < 25% |  |  | 
COC(=O)C(Cc1ccccc1)NC(=O)C1CC1(c1ccccc1)c1ccccc1 (stereo not drawn) [RU-0028029] | 26 to 50% | < 25% | 51 to 74% | > 1000 nM |  | 
Cc1cc(C)c2c(c1C(=O)N1CCC3(CC1)C(=O)NCN3c1ccccc1)CC(C)(C)C2=O [RU-0025771] | 26 to 50% | 26 to 50% |  |  |  | 
COCCCN(CC(=O)N1CCc2sccc2C1c1ccc(OC)cc1)C(=O)C(C)(C)CCl (stereo not drawn) [RU-0069950] | 51 to 74% | 51 to 74% | 26 to 50% |  | > 1000 nM | > 1000 nM
Cc1ccc(CN(Cc2ccc(F)cc2)C(=O)CN(C(=O)NC(C)(C)C)C2CC2)s1 [RU-0052360] | < 25% | 26 to 50% | 51 to 74% | > 1000 nM |  | 
COc1ccc(-c2nnc(SCc3ccc(C#N)cc3)n2-c2ccc(C)cc2)cc1 [RU-0046426] | 26 to 50% | 51 to 74% | 26 to 50% |  |  | > 1000 nM
COCCNC(=O)c1ccc(CSc2nnc(-c3ccc(C)cc3)n2-c2ccccc2F)cc1 [RU-0051652] | 26 to 50% | < 25% | < 25% |  |  | 
COCCN(Cc1cc(Cl)ccc1OS(=O)(=O)c1ccc(F)cc1)C(=O)C1CCC1 [RU-0035287] | 26 to 50% | 26 to 50% | 26 to 50% |  |  | 
COc1ccc(N2CCN(C(=O)C3CC=CCC3C(=O)NCCCCc3ccccc3)CC2)cc1 (stereo not drawn) [RU-0026167] | < 25% | 26 to 50% | 26 to 50% |  |  | 
Cc1ccc(CN(CCc2ccccc2)C(=O)CN(C(=O)NC(C)(C)C)C(C)C)o1 [RU-0072008] | < 25% | 26 to 50% | < 25% |  |  | 
CC(NCc1ccccc1)c1nc2ccccc2c(=O)n1-c1ccc(Cl)cc1 (stereo not drawn) [RU-0072535] | < 25% | 26 to 50% | < 25% |  |  | 
COc1nc(NC(C)C)nc(NC(C)C)n1 [RU-0001534] | 26 to 50% | < 25% | 26 to 50% |  |  | 
COCCCN(CC(=O)N1CCc2sccc2C1COc1cccc(OC)c1)C(=O)c1ccccc1OC (stereo not drawn) [RU-0036294] | < 25% | 26 to 50% | 51 to 74% | > 1000 nM |  | 
C=C[C@@](C)(O)CCC1C(=C)CCC2[C@@](C)(CO)CCC[C@]12C (stereo partly drawn) [RU-0001327] | 26 to 50% | 26 to 50% | 26 to 50% |  |  | 
COc1cc(OC)cc(C2NC(=O)N(C)C3=C2C(=O)N(C2CCCCC2)C3)c1 (stereo not drawn) [RU-0047750] | 26 to 50% | < 25% | < 25% |  |  | 
CCN(CC)C(=O)Oc1ccc2c(ccn2Cc2cccc(C)c2)c1NC(=O)[C@H](C)OC(C)=O [RU-0075468] | < 25% | > 75% | < 25% |  |  | < 100 nM
CN(C)c1nc(N(C)C)nc(N(C)C)n1 [RU-0000619] | 26 to 50% | 51 to 74% | 26 to 50% |  |  | > 1000 nM
COc1ccccc1N1CCN(C(=O)c2cc3n(n2)CCN(Cc2c(F)cccc2Cl)C3=O)CC1 [RU-0043595] | 51 to 74% | 51 to 74% | 26 to 50% |  | > 1000 nM | > 1000 nM
COc1nc(OCC#N)nc(N2CCCCC2)n1 [RU-0006256] | 26 to 50% | < 25% | 51 to 74% | > 1000 nM |  | 
COCCCN(CC(=O)N1CCc2sccc2C1COc1cccc(OC)c1)C(=O)Cc1ccccc1 (stereo not drawn) [RU-0036264] | < 25% | < 25% | 26 to 50% |  |  | 
CCOC(=O)C(c1ccc(OC)c(OC)c1)C1C=CC(NC(=O)c2ccc3c(c2)OCO3)C1 (stereo not drawn) [RU-0049030] | < 25% | < 25% | 26 to 50% |  |  | 
CN(Cc1ccccc1)C(=O)CCC1CCN(C(=O)CCOc2ccccc2)CC1 [RU-0028727] | 51 to 74% | 51 to 74% |  |  | > 1000 nM | > 1000 nM
CCOCCCN(CC(=O)N(Cc1ccc2c(c1)OCO2)Cc1sccc1C)C(=O)NC(C)(C)C [RU-0052340] | < 25% | 26 to 50% | < 25% |  |  | 
COc1ccc(N2CCN(C(=O)C3CC=CCC3C(=O)NC(c3ccccc3)c3ccccn3)CC2)cc1 (stereo not drawn) [RU-0026507] | 26 to 50% | < 25% | < 25% |  |  | 
CCOC(=O)C(c1cccc(OC)c1)C1C=CC(NC(=O)c2cccs2)C1 (stereo not drawn) [RU-0074560] | < 25% | < 25% | < 25% |  |  | 
CCCCc1nc(CN2CCc3c([nH]c4ccccc34)C2c2cccc(OC)c2OC)c[nH]1 (stereo not drawn) [RU-0031879] | < 25% | 26 to 50% | 26 to 50% |  |  | 
CCOc1ccccc1C(=O)NNC(=O)COc1cc(C)cc(C)c1 [RU-0023245] | 26 to 50% | 26 to 50% |  |  |  | 
O=C1CN(S(=O)(=O)c2c(F)cc(F)cc2F)CC2c3cccc(F)c3CCN12 (stereo not drawn) [RU-0076832] | 26 to 50% | 26 to 50% | < 25% |  |  | 
